Results from patent US20210275514A1, “COMPOUNDS FOR USE IN TREATING KIDNEY DISORDERS” (Hoffmann-La Roche Inc., priority 2018, published 2021).
Entries after “also recorded” stand apart in the source; their conditions may differ.

Key:
ABCA1 [1] = assay: ABCA1 expression by western blot in differentiated podocytes; type: cell-based, human; details: 18 h
Protocol: Podocytes differentiated for 14 days were starved in RPMI-0.2% FBS for 18 h and then treated with freshly prepared dilutions of compounds in full media for 18 h at 37° C. and 5% CO2. Compound concentrations of 1 μM, 5 μM and 10 μM were evaluated. Cells were then washed with PBS and lysed with 1× cell lysis buffer (Cell Signaling) supplemented with protease and phosphatase inhibitor cocktails (Roche). Total protein content was determined by BCA method (Pierce, Thermoscientific). ABCA1 expression was analyzed by western blot.
(§1) Lysates, or cell fractions were incubated with buffer sample at 55° C. for 10 min under reducing conditions. A total of […] of protein in lysates, and one third of the volume collected in cell fraction preps, were separated by SDSPAGE in 4-20% gels (Biorad) and proteins were then transferred to PVDF membranes. Membranes were blocked with 5% milk and blotted with protein-specific antibodies for 18 h at 4° C. The following antibodies were used: mouse anti-ABCA1 (Abcam; 1:1,000), rabbit anti-GAPDH antibody (Millipore; 1:10,000), rabbit anti-MEK and anti-Na^+/K^+ ATPase (Cell Signaling; 1:1,000). After washing with PBS-T, membranes were incubated with anti-mouse and anti-rabbit specific antibodies conjugated to HRP (Promega) 1:10,000 in 5% milk. Membranes were washed and signal was developed using Western bright ECL substrate (Advansta).

ABCA1 [2] = assay: Cell fractionation, ABCA1 localization by western blot; type: cell-based, human; details: 18 h
Protocol: 14 day-differentiated podocytes were treated with compounds Cpd C (1 μM), Cpd A (5 μM) and Cpd G (10 μM) for 18 h and then washed and scraped with ice cold PBS. Cells were centrifuged at 1,000×g for 5 min, supernatant was carefully aspirated and the pellet resuspended in hypotonic buffer (15 mM KCl, 1.5 mM MgCl2, 10 mM HEPES and 1 mM DTT) supplemented with Roche's protease inhibitor cocktail. Further cell rupture was ensured by frothing in a glass douncer and two freeze and thaw cycles. Sucrose was added, 227 mM final concentration, and the cells were centrifuged at 1,000×g for 30 min at 4° C. The supernatant was then transferred to a new tube and centrifuged at 10,000×g for 15 min at 4° C. The pellet, containing the microsomal fraction was collected and the supernatant was transferred to a new tube and centrifuged at 100,000×g for 1 hr at 4° C. The pelleted plasma membrane fraction was collected and the supernatant, containing non membranous cytosolic fraction, was concentrated in Vivaspin 500 filter columns. The presence of ABCA1, and proteins known to be present at the plasma membrane (Na^+/K^+ sodium pump) and cytosol (MEK), in each fraction was verified by western blot.
as §1

ADR-injected Balb/c mice = assay: Toxicity by serology in ADR-injected mice (WBC, hemoglobin, hematocrit, transaminases); type: in vivo, mouse; details: for ALT / HCT / HEMOGLOBIN / WBC: 35-day treatment, ADR-injected; for liver toxicity and blood dyscrasias (serology): all treated animals
Excerpt: We next investigated compounds C, A and G toxicity by serology. More specifically, we determined hematocrit, hemoglobin white cell blood count and liver transaminases ALT and AST of all treated animals to determine if liver toxicity and blood dyscrasias were associated with the compounds.

ABCA1 [3] = assay: ApoA1-mediated cholesterol efflux in differentiated podocytes; type: cell-based, human; details: 18 h
Protocol: Human podocytes differentiated for 13 days were labeled with 1 μCi/ml of [^3H]-cholesterol in RPMI media with 2% FBS for 24 h. Cells were then washed with PBS and incubated with equilibration media (RPMI-0.2% fat free-BSA) supplemented with vehicle or compounds Cpd C (1 μM), Cpd A (1 μM, 5 μM) and Cpd G (1 μM, 5 μM, 10 μM) for 18 h. Cells were then washed with PBS, and incubated with equilibration media with or without 20 μg/ml of human ApoA1 for 18 h at 37° C., 5% CO2. Media was collected, spun at 12,000×g for 5 min and the radioactivity of the 200 μl aliquot was counted by liquid scintillation. Cells were washed with PBS, lysed with 250 μl 0.1% SDS, 0.1 M NaOH and the radioactivity in 100 μl aliquot was measured by liquid scintillation. Cholesterol efflux was calculated as the % of labeled cholesterol that moved from the cell to the media by the formula:
Efflux (%)=100×{(cpm media)/[(cpm media)+(cpm lysate)]}
ApoA1-mediated cholesterol efflux was calculated as the difference between the efflux in the presence or absence of ApoA1. All treatments were done in duplicate. More than 3 independent experiments were performed.

[4] = test system: ADR-induced nephropathy in Balb/c mice; assay: Adriamycin-induced kidney damage, dose finding experiment, 35 days; type: in vivo, mouse; details: for Albuminuria / proteinuria / Body weight loss: 5 weeks after ADR; for TOTAL CHOL (blood) / TRIGLYCERIDES (blood): 35 days after ADR injection
Protocol: First, we performed a preliminary experiment to explore the best dose of compounds to be used and to determine if other experimental variables needed to be adjusted. In this experiment, 30 mice received a single dose of Adriamycin (Sigma-Aldrich, 12 mg/Kg, via tail vein injection) and then were randomly separated into 6 groups of 5 mice each. Another 5 mice were injected with 0.9% NaCl by the same route and were used as a no-kidney injury baseline group. Starting 24 h after ADR injection, vehicle, or different doses of compounds, were given once daily by oral gavage for 35 days. The doses of compounds tested were the following: LXR agonist (Cpd C, 10 mg/Kg); ABCA1 inducers Cpd A and Cpd G (30 mg/Kg and 100 mg/Kg). Body weight measurements and spot urine collection was done once a week. Animals were sacrificed 35 days after ADR injection (FIG. 1).
Spot urine samples were collected for all mice at baseline and time of sacrifice. Urinary albumin and creatinine were determined using an albumin ELISA kit (Bethyl laboratories) and a colorimetric assay for creatinine determination (Stanbio). Albuminuria was calculated and expressed as μg of albumin divided by mg of creatinine. For diabetic mouse model, weight and glycaemia were measured on a bi-weekly basis.

[5] = 100 mg/Kg once daily oral gavage
[6] = 30 mg/Kg once daily oral gavage

Compound: Cc1oc(-c2cccc(C(F)(F)F)c2)nc1Cn1c(C)cc2cc(C(O)(C(F)(F)F)C(F)(F)F)ccc21 [Cpd C, 1,1,1,3,3,3-Hexafluoro-2-{2-methyl-1-[5-methyl-2-(3-trifluoromethyl-phenyl)-oxazol-4-ylmethyl]-1H-indol-5-yl}-propan-2-ol, reference compound]
- ABCA1 expression (western blot, whole cell lysates) (ABCA1 [1]; doses as low as 1 uM, FIG. 4A): strong induction; also recorded: markedly increased
- ABCA1 localization at the plasma membrane (ABCA1 [2]; 1 μM): increase the expression of ABCA1 at the plasma membrane; also recorded: promoted ABCA1 localization at the plasma membrane
- ALT (ADR-injected Balb/c mice; 10 mg/Kg): 213.0 ± 151.7 U/L
- HCT (ADR-injected Balb/c mice; 10 mg/Kg): 44.8 ± 1.5%
- HEMOGLOBIN (ADR-injected Balb/c mice; 10 mg/Kg): 12.2 ± 1.0 g/dL
- WBC (ADR-injected Balb/c mice; 10 mg/Kg): 7.6 ± 4.4 ×10^∧3 cells/ul
- liver toxicity and blood dyscrasias (serology) (ADR-injected Balb/c mice): No apparent signs of such toxicities
- ALT (ADR-injected Balb/c mice; first ALT line (r15), 10 mg/Kg): 299.5 ± 365.0 U/L
- ApoA1-mediated cholesterol efflux (ABCA1 [3]; 1 μM): increase ApoA1-mediated cholesterol efflux; also recorded: Significant increase
- Albuminuria / proteinuria ([4]; 10 mg/Kg once daily oral gavage): No significant differences
- TOTAL CHOL (blood) ([4]; 10 mg/Kg): 117.4 ± 66.8 mg/dL
- TRIGLYCERIDES (blood) ([4]; 10 mg/Kg): 57.2 ± 6.3 mg/dL

Compound: O=C(N[C@@H]1CCCC[C@H]1O)c1cnc(OCC(F)(F)F)c(-c2ccc(Cl)c(Cl)c2)c1 [Cpd G, 5-(3,4-dichloro-phenyl)-N-((1R,2R)-2-hydroxy-cyclohexyl)-6-(2,2,2-trifluoro-ethoxy)-nicotinamide]
- ABCA1 expression (western blot, whole cell lysates) (ABCA1 [1]; 10 uM): modest induction; also recorded: modest increase; also recorded: increased ABCA1 expression
- ABCA1 in the microsomal compartment (ABCA1 [2]; 10 μM): Less ABCA1
- ABCA1 localization at the plasma membrane (ABCA1 [2]; 10 μM): increase the expression of ABCA1 at the plasma membrane; also recorded: promoted ABCA1 localization at the plasma membrane
- ALT (ADR-injected Balb/c mice; 30 mg/Kg): 323.4 ± 87.1 U/L
- HCT (ADR-injected Balb/c mice; 30 mg/Kg): 49.5 ± 4.4%
- HEMOGLOBIN (ADR-injected Balb/c mice; 30 mg/Kg): 12.9 ± 1.0 g/dL
- WBC (ADR-injected Balb/c mice; 30 mg/Kg): 6.3 ± 1.2 ×10^∧3 cells/ul
- ALT (ADR-injected Balb/c mice; 100 mg/Kg): 212.4 ± 91.1 U/L
- HCT (ADR-injected Balb/c mice; 100 mg/Kg): 49.6 ± 2.3%
- HEMOGLOBIN (ADR-injected Balb/c mice; 100 mg/Kg): 13.1 ± 0.6 g/dL
- WBC (ADR-injected Balb/c mice; 100 mg/Kg): 4.7 ± 1.6 ×10^∧3 cells/ul
- liver toxicity and blood dyscrasias (serology) (ADR-injected Balb/c mice): No apparent signs of such toxicities
- ALT (ADR-injected Balb/c mice; first ALT line (r15), 30 mg/Kg): 181.6 ± 69.0 U/L
- ALT (ADR-injected Balb/c mice; first ALT line (r15), 100 mg/Kg): 191.4 ± 79.9 U/L
- ApoA1-mediated cholesterol efflux (ABCA1 [3]; 10 μM): increase ApoA1-mediated cholesterol efflux; also recorded: Significant increase
- TOTAL CHOL (blood) ([4]; 30 mg/Kg): 136.3 ± 38.9 mg/dL
- TRIGLYCERIDES (blood) ([4]; 30 mg/Kg): 51 ± 16.8 mg/dL
- Albuminuria / proteinuria [4, 5]: attenuated; also recorded: reduced
- Body weight loss [4, 5]: partially attenuated; also recorded: prevented
- TOTAL CHOL (blood) ([4]; 100 mg/Kg): 109.7 ± 11.0 mg/dL
- TRIGLYCERIDES (blood) ([4]; 100 mg/Kg): 62 ± 16.5 mg/dL

Compound: O=C(N[C@@H]1CCCC[C@H]1O)c1ccc(OCC(F)(F)F)c(-c2ccc(Cl)c(Cl)c2)n1 [Cpd A, 6-(3,4-Dichlorophenyl)-N-[(1R,2R)-2-hydroxycyclohexyl]-5-(2,2,2-trifluoroethoxy)pyridine-2-carboxamide]
- ABCA1 expression (western blot, whole cell lysates) (ABCA1 [1]; 5 uM, FIG. 4B): modest increase
- ABCA1 expression (western blot, whole cell lysates) (ABCA1 [1]; 10 uM): modest induction; also recorded: increased ABCA1 expression
- ABCA1 in the microsomal compartment (ABCA1 [2]; 5 μM): Less ABCA1
- ABCA1 localization at the plasma membrane (ABCA1 [2]; 5 μM): increase the expression of ABCA1 at the plasma membrane; also recorded: promoted ABCA1 localization at the plasma membrane
- ALT (ADR-injected Balb/c mice; 30 mg/Kg): 365.3 ± 181.2 U/L
- HCT (ADR-injected Balb/c mice; 30 mg/Kg): 51.8 ± 3.3%
- HEMOGLOBIN (ADR-injected Balb/c mice; 30 mg/Kg): 13.9 ± 1.1 g/dL
- WBC (ADR-injected Balb/c mice; 30 mg/Kg): 4.6 ± 1.3 ×10^∧3 cells/ul
- liver toxicity and blood dyscrasias (serology) (ADR-injected Balb/c mice): No apparent signs of such toxicities
- ALT (ADR-injected Balb/c mice; first ALT line (r15), 30 mg/Kg): 339.3 ± 274.8 U/L
- ApoA1-mediated cholesterol efflux (ABCA1 [3]; 5 μM): increase ApoA1-mediated cholesterol efflux; also recorded: Significant increase
- Albuminuria / proteinuria [4, 6]: attenuated; also recorded: reduced
- Body weight loss [4, 6]: partially attenuated; also recorded: prevented
- TOTAL CHOL (blood) ([4]; 30 mg/Kg): 86.3 ± 8.8 mg/dL
- TRIGLYCERIDES (blood) ([4]; 30 mg/Kg): 57.6 ± 15.5 mg/dL
- TOTAL CHOL (blood) ([4]; 100 mg/Kg): 226.7 ± 173.4 mg/dL
- TRIGLYCERIDES (blood) ([4]; 100 mg/Kg): 47.3 ± 7.5 mg/dL
